Laboratory results from patent publication US9624214B2, “Amino-substituted imidazo[1,2-a]pyridinecarboxamides and their use” (BAYER PHARMA AKTIENGESELLSCHAFT, priority 2012, dated 2017).
Where a name gives a salt, the structure may show the parent alone.

Molecular target: T1, recombinant guanylate cyclase reporter cell line (Rattus norvegicus, UniProt P19686+P20595)
T1 construct: expressed in transfected cells
T1 sequence (P20595 1-619): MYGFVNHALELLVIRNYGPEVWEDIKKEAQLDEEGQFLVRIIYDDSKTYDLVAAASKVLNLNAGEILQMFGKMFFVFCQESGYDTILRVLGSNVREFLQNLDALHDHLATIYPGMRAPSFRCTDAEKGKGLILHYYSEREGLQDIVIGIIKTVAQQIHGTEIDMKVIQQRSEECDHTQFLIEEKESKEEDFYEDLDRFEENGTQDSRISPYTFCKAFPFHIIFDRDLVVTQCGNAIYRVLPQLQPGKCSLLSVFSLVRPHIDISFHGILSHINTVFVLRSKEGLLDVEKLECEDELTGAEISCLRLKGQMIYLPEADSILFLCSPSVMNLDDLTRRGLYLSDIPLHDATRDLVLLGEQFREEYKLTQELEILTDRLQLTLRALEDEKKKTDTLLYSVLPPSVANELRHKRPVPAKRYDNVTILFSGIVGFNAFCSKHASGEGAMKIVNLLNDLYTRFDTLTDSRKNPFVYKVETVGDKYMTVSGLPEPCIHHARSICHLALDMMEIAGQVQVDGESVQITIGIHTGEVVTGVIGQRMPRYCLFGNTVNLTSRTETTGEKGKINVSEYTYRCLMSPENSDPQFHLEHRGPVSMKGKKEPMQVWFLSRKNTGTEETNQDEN
T1 sequence (P19686 1-690): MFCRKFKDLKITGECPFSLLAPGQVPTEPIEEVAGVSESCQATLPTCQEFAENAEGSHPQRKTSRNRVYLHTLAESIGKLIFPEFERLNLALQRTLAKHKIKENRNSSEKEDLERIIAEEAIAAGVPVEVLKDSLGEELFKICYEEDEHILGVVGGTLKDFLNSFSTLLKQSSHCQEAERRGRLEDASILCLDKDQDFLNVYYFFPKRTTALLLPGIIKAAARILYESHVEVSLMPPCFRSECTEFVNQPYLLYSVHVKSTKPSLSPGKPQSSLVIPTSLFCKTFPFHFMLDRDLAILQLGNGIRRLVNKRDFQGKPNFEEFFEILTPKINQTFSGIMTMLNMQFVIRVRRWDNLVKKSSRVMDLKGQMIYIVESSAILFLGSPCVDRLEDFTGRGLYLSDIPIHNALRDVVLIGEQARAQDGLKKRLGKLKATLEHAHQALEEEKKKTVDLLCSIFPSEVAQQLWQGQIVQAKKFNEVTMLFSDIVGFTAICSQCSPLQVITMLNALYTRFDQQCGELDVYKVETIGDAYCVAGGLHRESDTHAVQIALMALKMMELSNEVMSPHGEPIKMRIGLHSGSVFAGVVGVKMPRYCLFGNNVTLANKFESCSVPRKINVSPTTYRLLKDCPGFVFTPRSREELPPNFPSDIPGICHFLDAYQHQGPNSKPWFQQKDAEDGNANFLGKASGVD
Experiment: B-2. Action on recombinant guanylate cyclase reporter cell line
Type: cell-based
Conditions: MEC = minimal effective concentration; in some cases mean values from individual determinations
Outline: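 MEC values, meaning the lowest concentration producing a detectable response, were taken from a recombinant cyclase reporter cell assay. Where repeated, individual determinations were averaged.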

SMILES	MEC [µM]
Cc1nc2c(OCc3c(F)cccc3F)cc(Cl)cn2c1C(=O)NCC(N)CC(F)(F)F (single isomer, unassigned) [Example 192, ent-N-(2-Amino-4,4,4-trifluorobutyl)-6-chloro-8-[(2,6-difluorobenzyl)oxy]-2-methylimidazo[1,2-a]pyridine-3-carboxamide]	0.30
Cc1nc2c(OCc3c(F)cccc3F)cc(Cl)cn2c1C(=O)NC1CNc2ccccc21 (racemic) [Example 49, rac-6-Chloro-8-[(2,6-difluorobenzyl)oxy]-N-(2,3-dihydro-1H-indol-3-yl)-2-methylimidazo[1,2-a]-pyridine-3-carboxamide]	0.30
Cc1nc2c(OCc3c(F)cccc3F)cc(Cl)cn2c1C(=O)NC(C)(C)CN [Example 24, N-(1-amino-2-methylpropan-2-yl)-6-chloro-8-[(2,6-difluorobenzyl)oxy]-2-methylimidazo[1,2-a]pyridine-3-carboxamide]	0.65
Cc1nc2c(OCc3c(F)cccc3F)cc(F)cn2c1C(=O)NCC(C)(C)N [Example 140, N-(2-Amino-2-methylpropyl)-8-[(2,6-difluorobenzyl)oxy]-6-fluoro-2-methylimidazo[1,2-a]-pyridine-3-carboxamide]	1.00
Cc1nc2c(OCc3c(F)cccc3F)cccn2c1C(=O)NC(CN)COC(C)C (single isomer, unassigned) [Example 93, ent-N-(1-Amino-3-isopropoxypropan-2-yl)-8-[(2,6-difluorobenzyl)oxy]-2-methylimidazo[1,2-a]-pyridine-3-carboxamide]	0.30
Cc1nc2c(OCc3c(F)cccc3F)cccn2c1C(=O)NCC(N)C(F)(F)F (single isomer, unassigned) [Example 208, ent-N-(2-Amino-3,3,3-trifluoropropyl)-8-[(2,6-difluorobenzyl)oxy]-2-methylimidazo[1,2-a]-pyridine-3-carboxamide]	0.30
CCC(C)(N)CNC(=O)c1c(C)nc2c(OCc3c(F)cccc3F)cc(Cl)cn12 (single isomer, unassigned) [Example 195, ent-N-(2-Amino-2-methylbutyl)-6-chloro-8-[(2,6-difluorobenzyl)oxy]-2-methylimidazo[1,2-a]-pyridine-3-carboxamide]	0.30
Cc1nc2c(OCC3CCCCC3)cccn2c1C(=O)NC(CN)c1ccc(F)cc1F (stereo not drawn) [Example 45, ent-N-[2-Amino-1-(2,4-difluorophenyl)ethyl]-8-(cyclohexylmethoxy)-2-methylimidazo[1,2-a]-pyridine-3-carboxamide]	1.00
Cc1nc2c(OCc3c(F)cccc3F)cccn2c1C(=O)NCC(C)(C)N [Example 72, N-(2-Amino-2-methylpropyl)-8-[(2,6-difluorobenzyl)oxy]-2-methylimidazo[1,2-a]pyridine-3-carboxamide]	0.30
Cc1nc2c(OCc3c(F)cccc3F)cccn2c1C(=O)NC1CC2CCCC(C1)N2C (stereo not shown) [Example 90, 8-[(2,6-difluorobenzyl)oxy]-2-methyl-N-(9-methyl-9-azabicyclo[3.3.1]non-3-yl)imidazo[1,2-a]pyridine-3-carboxamide]	0.10
COCC(C)(N)CNC(=O)c1c(C)nc2c(OCc3c(F)cccc3F)cccn12 (single isomer, unassigned) [Example 215, ent-N-(2-Amino-3-methoxy-2-methylpropyl)-8-[(2,6-difluorobenzyl)oxy]-2-methylimidazo[1,2-a]-pyridine-3-carboxamide]	1.00
NCC(NC(=O)c1cnc2c(OCc3c(F)cccc3F)cccn12)c1ccc(F)c(F)c1 (stereo not drawn) [Example 55, ent-N-[2-amino-1-(3,4-difluorophenyl)ethyl]-8-[(2,6-difluorobenzyl)oxy]imidazo[1,2-a]pyridine-3-carboxamide dihydrochloride]	2.00
Cc1cc(OCc2c(F)cccc2F)c2nc(C)c(C(=O)NCC3(N)CCC3)n2c1 [Example 165, N-[(1-aminocyclobutyl)methyl]-8-[(2,6-difluorobenzyl)oxy]-2,6-dimethylimidazo[1,2-a]-pyridine-3-carboxamide]	0.10
Cc1nc2c(OCc3c(F)cccc3F)cccn2c1C(=O)NC(CN)c1ccc(F)cc1 (racemic) [Example 9, rac-N-[2-Amino-1-(4-fluorophenyl)ethyl]-8-[(2,6-difluorobenzyl)oxy]-2-methylimidazo[1,2-a]-pyridine-3-carboxamide]	0.30

Next, values leading:

MEC [µM]	SMILES
0.65	COc1ccc(CC(C)(CN)NC(=O)c2c(C)nc3c(OCc4c(F)cccc4F)cc(C)cn23)cc1 (racemic) [Example 386, rac-N-[1-amino-3-(4-methoxyphenyl)-2-methylpropan-2-yl]-8-[(2,6-difluorobenzyl)oxy]-2,6-dimethylimidazo[1,2-a]pyridine-3-carboxamide]
0.10	CCCC(C)(N)CNC(=O)c1c(C)nc2c(OCc3c(F)ccc(F)c3F)cc(C)cn12 (single isomer, unassigned) [Example 295, ent-N-(2-amino-2-methylpentyl)-2,6-dimethyl-8-[(2,3,6-trifluorobenzyl)oxy]imidazo[1,2-a]pyridine-3-carboxamide]
1.00	Cc1cc(OCc2c(F)cccc2F)c2nc(C)c(C(=O)NC34CCC3CNC4)n2c1 (racemic) [Example 346, rac-N-(3-azabicyclo[3.2.0]hept-1-yl)-8-[(2,6-difluorobenzyl)oxy]-2,6-dimethylimidazo[1,2-a]pyridine-3-carboxamide]
0.30	CCC(C)(CN)NC(=O)c1c(C)nc2c(OCc3c(F)ccc(F)c3F)cc(C)cn12 (stereo not drawn) [Example 315, ent-N-(1-amino-2-methylbutan-2-yl)-2,6-dimethyl-8-[(2,3,6-trifluorobenzyl)oxy]imidazo[1,2-a]pyridine-3-carboxamide]
0.10	Cc1cc(OCc2c(F)cccc2F)c2nc(C)c(C(=O)NCC(C)(N)Cc3ccc(F)cc3)n2c1 (racemic) [Example 296, rac-N-[2-amino-3-(4-fluorophenyl)-2-methylpropyl]-8-[(2,6-difluorobenzyl)oxy]-2,6-dimethylimidazo[1,2-a]pyridine-3-carboxamide]
0.10	CCCC(C)(N)CNC(=O)c1c(C)nc2c(OCc3c(F)cccc3F)cc(Br)cn12 (stereo not drawn) [Example 306, ent-N-(2-amino-2-methylpentyl)-6-bromo-8-[(2,6-difluorobenzyl)oxy]-2-methylimidazo[1,2-a]pyridine-3-carboxamide]
1.00	CCC(C)(N)CNC(=O)c1c(C)nc2c(OCc3c(F)ccc(OC)c3F)cc(C)cn12 (stereo not drawn) [Example 360, ent-N-(2-amino-2-methylbutyl)-8-[(2,6-difluoro-3-methoxybenzyl)oxy]-2,6-dimethylimidazo[1,2-a]pyridine-3-carboxamide]
0.30	Cc1cc(OCc2c(F)cccc2F)c2nc(C)c(C(=O)NCC3CS(=O)(=O)CCN3)n2c1 (racemic) [Example 414, rac-8-[(2,6-difluorobenzyl)oxy]-N-[(1,1-dioxidothiomorpholin-3-yl)methyl]-2,6-dimethylimidazo[1,2-a]pyridine-3-carboxamide]
0.3	CCCC(C)(N)CNC(=O)c1c(C)nc2c(OCc3c(F)cccc3F)cc(C3CC3)cn12 (single isomer, unassigned; enantiomer b) [Example 281, ent-N-(2-amino-2-methylpentyl)-6-cyclopropyl-8-[(2,6-difluorobenzyl)oxy]-2-methylimidazo[1,2-a]pyridine-3-carboxamide (Enantiomer B)]
0.3	CCCC(C)(N)CNC(=O)c1c(C)nc2c(OCc3c(F)cccc3F)cc(OC)cn12 (single isomer, unassigned; enantiomer b) [Example 278, ent-N-(2-amino-2-methylpentyl)-8-[(2,6-difluorobenzyl)oxy]-6-methoxy-2-methylimidazo[1,2-a]pyridine-3-carboxamide (Enantiomer B)]
0.03	Cc1nc2c(OCc3c(F)cccc3F)cccn2c1C(=O)NCC(C)(N)CCOCc1ccccc1 (racemic) [Example 264, rac-N-[2-amino-4-(benzyloxy)-2-methylbutyl]-8-[(2,6-difluorobenzyl)oxy]-2-methylimidazo[1,2-a]pyridine-3-carboxamide]
